This passage reports activity results from paper PMC11443518, “Undescribed Amaryllidaceae Alkaloids from Zephyranthes citrina and Their Cytotoxicity” (Journal of Natural Products, 2024).

Assay [1] concerns A2780 (ovarian carcinoma). Kind of assay: WST-1 cell proliferation assay, cytotoxicity screening. The class given is cell-based. Conditions: Homo sapiens, read-out: growth percent (GP) A2780. An excerpt:
(§1) Selected human tumor and nontumor cell lines Jurkat (acute T-cell leukemia), MOLT-4 (acute lymphoblastic leukemia), A549 (lung carcinoma), HT-29 (colorectal adenocarcinoma), PANC-1 (pancreas epithelioid carcinoma), A2780 (ovarian carcinoma), HeLa (cervix adenocarcinoma), MCF-7 (breast adenocarcinoma), SAOS-2 (osteosarcoma) and MRC-5 (nontumor lung fibroblasts) were purchased from European Collection of Authenticated Cell Cultures (ECACC, Salisbury, UK) and cultured according to the provider’s culture method guidelines. […] The cells in low passage number (nontumor primary cell line MRC-5 was used for a maximum of 10 passages and cancer cell lines were used for a maximum of 20 passages) and in an exponential growth phase were used for this study.
(§2) Each cell line was seeded at a previously established optimal density (1 × 10^3 to 50 × 10^3 cells per well) in a 96-well plate (TPP, Trasadingen, Switzerland) and cells were allowed to settle overnight. During screening tests for cytotoxicity, cells were treated with alkaloids at a final concentration of 10 μM for 48 h. Doxorubicin (Sigma-Aldrich, St. Louis, USA), at a concentration of 1 μM, was used as a positive control. At the end of the culture period, the WST-1 proliferation assay (Roche, Basel, Switzerland) was performed according to the manufacturer’s protocol. The absorbance was determined using a Tecan Spark microplate reader (Tecan, Männedorf, Switzerland). Each value is the mean of three independent experiments and represents the percentage of the proliferation of control, nontreated cells (100%). The growth percent (GP) value as the mean of the proliferation decrease was calculated for each cell line and derivative tested.
On the technique in general: Formazan colour is commonly taken as a measure of viable cells.

The subject of assay [2] is A549 (lung carcinoma). Described as above. Format: cell-based. Conditions: Homo sapiens, read-out: growth percent (GP) A549.
Source text: as §1, §2

The subject of assay [3] is HT-29 (colorectal adenocarcinoma). The description is as above. The class given is cell-based. The note with it: Homo sapiens, read-out: growth percent (GP) HT-29.
Source text: as §1, §2

For assay [4], the system named is HeLa (cervix adenocarcinoma). Described as above. Format: cell-based. Conditions: Homo sapiens, 48 h, read-out: growth percent (GP) HeLa.
Source text: as §1, §2

The subject of assay [5] is Jurkat (acute T-cell leukemia). The description is as above. Format: cell-based. The note with it: Homo sapiens, 48 h, read-out: growth percent (GP) Jurkat.
Source text: as §1, §2

The test system of assay [6] is MRC-5 (nontumor lung fibroblasts). The description is as above. The class given is cell-based. Conditions: Homo sapiens, read-out: growth percent (GP) MRC-5; for activity at 10 µM: MRC5, 48 h.
Source text: as §1, §2

Assay [7] concerns PANC-1 (pancreas epithelioid carcinoma). Described as above. The class given is cell-based. Conditions: Homo sapiens, read-out: growth percent (GP) PANC-1.
Source text: as §1, §2

In assay [8] the test system is SAOS-2 (osteosarcoma). The description is as above. The class given is cell-based. Conditions: Homo sapiens, read-out: growth percent (GP) SAOS-2.
Source text: as §1, §2

Assay [9] has as its system MCF-7 (breast adenocarcinoma). The assay is described as above. Format: cell-based, human. Conditions: Homo sapiens, read-out: growth percent (GP) MCF-7.
Source text: as §1, §2

Assay [10] has as its system MOLT-4 (acute lymphoblastic leukemia). The description is as above. Format: cell-based, human. Conditions: Homo sapiens, read-out: growth percent (GP) MOLT-4.
Source text: as §1, §2

Assay [11] deals with nine human tumor and one nontumor cell lines. Kind of assay: Cytotoxicity screening across the whole panel of cell lines. The note with it: Homo sapiens, read-out: GP value across the tested cell lines. The class given is cell-based.
Source text: Concerning the cytotoxicity of alkaloids isolated from Z. citrina, initially, Prakash and Vedanayaki investigated the MeOH extract of the bulbs for its in vitro cytotoxic activity using the MTT assay against three human cancer cell lines from different tissue origins: cervical cancer (HeLa), breast cancer (MCF-7), and oral squamous carcinoma (SCC-9). […] In this context, and to assess potential negative effects on human cell cultures, compounds 1, and 3–27 were screened in our study for cytotoxicity using a 10 μM single-dose regimen. The results were compared with those using the clinically approved antineoplastic agent doxorubicin at 1 μM. The effect on cell growth was investigated on nine human tumor and one nontumor cell lines, namely Jurkat (acute T-cell leukemia), MOLT-4 (acute lymphoblastic leukemia), A549 (lung carcinoma), HT-29 (colorectal adenocarcinoma), PANC-1 (pancreas epithelioid carcinoma), A2780 (ovarian carcinoma), HeLa (cervix adenocarcinoma), MCF-7 (breast adenocarcinoma), SAOS-2 (osteosarcoma) and MRC-5 (nontumor lung fibroblasts). […] No toxicity is valuable information, especially for compound 18, as it is a potent inhibitor of hAChE and hBChE.[27]
Selected human tumor and nontumor cell lines Jurkat (acute T-cell leukemia), MOLT-4 (acute lymphoblastic leukemia), A549 (lung carcinoma), HT-29 (colorectal adenocarcinoma), PANC-1 (pancreas epithelioid carcinoma), A2780 (ovarian carcinoma), HeLa (cervix adenocarcinoma), MCF-7 (breast adenocarcinoma), SAOS-2 (osteosarcoma) and MRC-5 (nontumor lung fibroblasts) were purchased from European Collection of Authenticated Cell Cultures (ECACC, Salisbury, UK) and cultured according to the provider’s culture method guidelines. All cell lines were maintained at 37 °C in a humidified 5% carbon dioxide and 95% air incubator. The cells in low passage number (nontumor primary cell line MRC-5 was used for a maximum of 10 passages and cancer cell lines were used for a maximum of 20 passages) and in an exponential growth phase were used for this study.
as §2

The mark [12] stands for this setting: A2780, c = 10 μM, 48 h, % of proliferation of nontreated control.
[13] abbreviates: A549, c = 10 μM, 48 h, % of proliferation of nontreated control.
Where [14] appears, read: HT-29, c = 10 μM, 48 h, % of proliferation of nontreated control.
Where [15] appears, read: c = 10 μM, % of proliferation of nontreated control.
Where [16] appears, read: PANC-1, c = 10 μM, 48 h, % of proliferation of nontreated control.
The mark [17] stands for this setting: SAOS-2, c = 10 μM, 48 h, % of proliferation of nontreated control.
[18] abbreviates: MCF7, c = 10 μM, 48 h, % of proliferation of nontreated control.
The mark [19] stands for this setting: MOLT-4, c = 10 μM, 48 h, % of proliferation of nontreated control.
The mark [20] stands for this setting: 10 μM single dose, 48-h interval, all tested cell lines.

Read-outs that look alike come from different tables or passages of the source.

Take `COc1cc2c(cc1OC)[C@@H]1[C@H](O)[C@@H](O)C=C3CCN(C2)[C@H]31` [Compound 24]: the activity at 10 µM in assay [1] (A2780, 48 h) was 99%; in [2] (A549, 48 h), 104%; in assay [3] (HT-29, 48 h) it was 114%; in assay [4] it was 116%; in assay [5], 109%; in assay [6], 96%. The activity at 10 µM in assay [7] (PANC-1, 48 h) is 109%; in assay [8] (SAOS-2, 48 h), 98%; in assay [9] (MCF7, 48 h), 104%; in assay [10] (MOLT-4, 48 h), 103%; in assay [11] (48 h), greater than 50%.

As to `CO[C@@H]1C=C[C@@]23c4cc5c(cc4CN(C[C@@H]2O)[C@H]3C1)OCO5` [Compound 12, haemanthamine], the activity at 10 µM turned out to be 38% in assay [1] (A2780, 48 h); 33% in [2] (A549, 48 h); 5% in assay [3] (HT-29, 48 h); 16% in assay [4]; 18% in assay [5]; 32% in [6]. In addition, the activity at 10 µM in [7] (PANC-1, 48 h) amounted to 37%; in assay [8] (SAOS-2, 48 h) it was 34%; in assay [9] (MCF7, 48 h) it was 17%; in [10] (MOLT-4, 48 h), 6%.

Consider `COc1cc2c(cc1OC)[C@@H]1[C@H](O)[C@@H](OC)C=C3CCN(C2)[C@H]31` [Compound 23], for which the activity at 10 µM in assay [1] (setting [12]) turned out to be 113%; in [2] (setting [13]) it was 93%; in assay [3] (setting [14]), 64%; in assay [4] (setting [15]), 93%; in assay [5] (setting [15]) it was 98%; in [7] (setting [16]), 97%. Further, the activity at 10 µM in [8] (setting [17]) was 97%; in assay [9] (setting [18]) it was 114%; in [10] (setting [19]) it was 103%; in [11] (setting [20]), greater than 50%.

For the compound `COc1cccc2c1C(=O)c1c(O)c3c(c(O)c1C2=O)C[C@@](O)(C(=O)CO)C[C@@H]3O[C@H]1C[C@H](N)[C@H](O)[C@H](C)O1` [doxorubicin, reference compound], the activity at 1 µM in assay [1] (A2780, positive control, c = 1 μM, 48 h) is 5%; in [2] (A549, positive control, c = 1 μM, 48 h), 66%; in assay [3] (HT-29, positive control, c = 1 μM, 48 h) it was 77%; in assay [4] (positive control, c = 1 μM) it was 7%; in assay [5] (positive control, c = 1 μM), 0%; in assay [6] (MRC5, positive control, c = 1 μM, 48 h), 40%. For the same compound, the activity at 1 µM was determined as 59% in assay [7] (PANC-1, positive control, c = 1 μM, 48 h); 73% in assay [8] (SAOS-2, positive control, c = 1 μM, 48 h); 41% in assay [9] (MCF7, positive control, c = 1 μM, 48 h); 0% in assay [10] (MOLT-4, positive control, c = 1 μM, 48 h).

On to `CO[C@@H]1C=C[C@@]23c4cc5c(cc4CO[C@]2(O)CN(C)[C@H]3C1)OCO5` [Compound 20], for which the activity at 10 µM was 101% in assay [1] (A2780, 48 h); 83% in [2] (A549, 48 h); 57% in assay [3] (HT-29, 48 h); 84% in [4]; 93% in assay [5]; 76% in [7] (PANC-1, 48 h). In addition, the activity at 10 µM in assay [8] (SAOS-2, 48 h) is 92%; in [9] (MCF7, 48 h), 94%; in assay [10] (MOLT-4, 48 h), 95%; in assay [11] (48 h) it was greater than 50%.

Consider `CO[C@@H]1C=C[C@@]23c4cc5c(cc4[C@H](O)N(C[C@@H]2O)[C@H]3C1)OCO5` [Compound 13, haemanthidine], for which the activity at 10 µM turned out to be 52% in assay [1] (A2780, 48 h); 38% in [2] (A549, 48 h); 7% in assay [3] (HT-29, 48 h); 25% in [4]; 23% in assay [5]; 38% in assay [7] (PANC-1, 48 h). Moreover, the activity at 10 µM is 35% in assay [8] (SAOS-2, 48 h); 24% in [9] (MCF7, 48 h); 11% in assay [10] (MOLT-4, 48 h).

With `O[C@H]1[C@H]2c3cc4c(cc3CN3CCC(=C[C@@H]1O)[C@H]23)OCO4` [Compound 27, lycorine], the activity at 10 µM in [1] (A2780, 48 h) came out at 39%; in assay [2] (A549, 48 h) it was 27%; in assay [3] (HT-29, 48 h) it was 5%; in [4], 15%; in [5], 5%; in assay [6], 25%. Besides, the activity at 10 µM in assay [7] (PANC-1, 48 h) was 36%; in assay [8] (SAOS-2, 48 h), 27%; in assay [9] (MCF7, 48 h) it was 27%; in assay [10] (MOLT-4, 48 h) it was 9%.

Take `COc1ccc2c3c1O[C@H]1C[C@@H](O)CC[C@@]31CCN(C)C2` [Compound 19]: the activity at 10 µM in assay [1] (A2780, 48 h) worked out at 92%; in [2] (A549, 48 h), 96%; in [3] (HT-29, 48 h), 83%; in assay [4] it was 82%; in [5], 102%; in assay [7] (PANC-1, 48 h), 102%. For the same compound, the activity at 10 µM in assay [8] (SAOS-2, 48 h) was 97%; in [9] (MCF7, 48 h), 101%; in assay [10] (MOLT-4, 48 h), 105%; in assay [11] (48 h), greater than 50%.

For the compound `CC(=O)O[C@@H]1CC=C2CCN3Cc4cc5c(cc4[C@H]1[C@@H]23)OCO5` [Compound 26], the activity at 10 µM in assay [1] (setting [12]) is 141%; in assay [2] (setting [13]) it was 113%; in assay [3] (setting [14]), 107%; in [4] (setting [15]), 98%; in assay [5] (setting [15]), 132%; in assay [7] (setting [16]), 119%. The activity at 10 µM in [8] (setting [17]) is 95%; in assay [9] (setting [18]) it was 131%; in assay [10] (setting [19]), 119%; in assay [11] (setting [20]) it was greater than 50%.
